Measured values: ChEMBL document CHEMBL4715821, “Discovery of 4-ethoxy-7H-pyrrolo[2,3-d]pyrimidin-2-amines as potent, selective and orally bioavailable LRRK2 inhibitors” (Bioorg Med Chem Lett, 2018)

Columns and labels:
[1] = target: Cyclin-dependent kinase 5/CDK5 activator 1 (Homo sapiens) (UniProt Q00535+Q15078); assay: Inhibition of wild-type human full length CDK5 (M1 to P292 residues)/p25 expressed in bacterial expression system assessed as residual activity at 1 uM by Kinomescan method relative to control
[2] = target: Serine/threonine-protein kinase D1 (Homo sapiens) (UniProt Q15139); assay: Inhibition of wild-type human partial length PRKD1 (G551 to E870 residues) expressed in bacterial expression system assessed as residual activity at 1 uM by Kinomescan method relative to control
Chain of Serine/threonine-protein kinase D1 (Homo sapiens) (Q15139 whole entry, the tested form may be a part): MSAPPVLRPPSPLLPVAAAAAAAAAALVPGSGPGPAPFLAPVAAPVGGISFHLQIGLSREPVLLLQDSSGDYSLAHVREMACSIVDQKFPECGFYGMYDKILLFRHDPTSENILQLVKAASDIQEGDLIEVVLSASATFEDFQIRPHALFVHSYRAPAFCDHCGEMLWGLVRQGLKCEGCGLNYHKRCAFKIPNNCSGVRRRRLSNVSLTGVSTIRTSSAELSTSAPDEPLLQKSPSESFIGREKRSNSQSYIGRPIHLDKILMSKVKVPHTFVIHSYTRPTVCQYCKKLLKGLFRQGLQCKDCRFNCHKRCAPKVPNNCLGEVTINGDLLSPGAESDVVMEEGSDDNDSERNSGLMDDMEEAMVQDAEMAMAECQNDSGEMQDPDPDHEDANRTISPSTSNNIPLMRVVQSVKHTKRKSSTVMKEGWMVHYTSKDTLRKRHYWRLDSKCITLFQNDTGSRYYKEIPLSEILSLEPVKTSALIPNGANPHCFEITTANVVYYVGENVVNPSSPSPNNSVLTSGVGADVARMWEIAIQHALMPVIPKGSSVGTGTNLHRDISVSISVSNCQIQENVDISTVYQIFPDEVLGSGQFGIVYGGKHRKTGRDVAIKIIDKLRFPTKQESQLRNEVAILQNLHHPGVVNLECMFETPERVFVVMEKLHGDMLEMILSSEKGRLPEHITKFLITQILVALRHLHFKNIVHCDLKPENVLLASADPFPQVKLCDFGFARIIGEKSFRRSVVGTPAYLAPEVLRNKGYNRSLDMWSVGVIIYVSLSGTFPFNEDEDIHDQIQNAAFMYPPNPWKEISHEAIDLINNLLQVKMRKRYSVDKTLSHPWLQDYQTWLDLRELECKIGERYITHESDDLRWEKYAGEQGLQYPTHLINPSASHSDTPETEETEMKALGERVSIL

[3] = target: cAMP-dependent protein kinase catalytic subunit beta (Homo sapiens) (UniProt P22694); assay: Inhibition of wild-type human full length PKAC-beta (M1 to F351 residues) expressed in bacterial expression system assessed as residual activity at 1 uM by Kinomescan method relative to control
[4] = target: CDK4/Cyclin D3 (Homo sapiens) (UniProt P11802+P30281); assay: Inhibition of wild-type human full length CDK4/cyclinD3 (M1 to E303 residues) expressed in mammalian expression system assessed as residual activity at 1 uM by Kinomescan method relative to control
[5] = target: RAC-gamma serine/threonine-protein kinase (Homo sapiens) (UniProt Q9Y243); assay: Inhibition of wild-type human partial length AKT3 expressed in bacterial expression system assessed as residual activity at 1 uM by Kinomescan method relative to control
[6] = target: NT-3 growth factor receptor (Homo sapiens) (UniProt Q16288); assay: Inhibition of wild-type human partial length TRKC (Q531 to G825 residues) expressed in mammalian expression system assessed as residual activity at 1 uM by Kinomescan method relative to control
Chain of NT-3 growth factor receptor (Homo sapiens) (Q16288 32-839 limits assumed): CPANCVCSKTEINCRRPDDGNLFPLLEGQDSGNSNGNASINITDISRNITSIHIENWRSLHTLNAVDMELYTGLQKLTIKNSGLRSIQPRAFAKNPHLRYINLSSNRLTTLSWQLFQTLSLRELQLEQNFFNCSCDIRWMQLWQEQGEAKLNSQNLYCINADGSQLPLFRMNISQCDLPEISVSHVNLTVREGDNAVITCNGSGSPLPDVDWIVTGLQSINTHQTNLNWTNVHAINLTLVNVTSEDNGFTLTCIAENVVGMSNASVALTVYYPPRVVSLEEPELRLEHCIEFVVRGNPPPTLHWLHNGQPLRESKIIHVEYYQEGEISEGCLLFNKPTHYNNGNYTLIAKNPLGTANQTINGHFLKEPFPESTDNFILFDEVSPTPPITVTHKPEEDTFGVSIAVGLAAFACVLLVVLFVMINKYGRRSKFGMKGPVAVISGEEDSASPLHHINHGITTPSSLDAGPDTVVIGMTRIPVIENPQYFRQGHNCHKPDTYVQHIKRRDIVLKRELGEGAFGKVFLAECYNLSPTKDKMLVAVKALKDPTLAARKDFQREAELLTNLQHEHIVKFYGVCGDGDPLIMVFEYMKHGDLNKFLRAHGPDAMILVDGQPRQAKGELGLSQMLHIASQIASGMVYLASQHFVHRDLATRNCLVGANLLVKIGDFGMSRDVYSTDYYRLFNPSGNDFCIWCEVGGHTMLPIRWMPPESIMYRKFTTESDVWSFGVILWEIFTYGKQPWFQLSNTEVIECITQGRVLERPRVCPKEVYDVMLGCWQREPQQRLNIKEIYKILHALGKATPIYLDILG

[7] = target: Tyrosine-protein kinase JAK3 (Homo sapiens) (UniProt P52333); assay: Inhibition of wild type human partial length JAK3 (I781 to S1124 residues) expressed in mammalian expression system assessed as residual activity at 1 uM by Kinomescan method relative to control
[8] = target: Leucine-rich repeat serine/threonine-protein kinase 2 (Homo sapiens, UniProt Q5S007); assay: Inhibition of LRRK2 in human AHE cells assessed as reduction in Ser935 phosphorylation; format: cell-based, Lymphoblastoid cell
Chain of Leucine-rich repeat serine/threonine-protein kinase 2 (Q5S007 whole entry, the tested form may be a part): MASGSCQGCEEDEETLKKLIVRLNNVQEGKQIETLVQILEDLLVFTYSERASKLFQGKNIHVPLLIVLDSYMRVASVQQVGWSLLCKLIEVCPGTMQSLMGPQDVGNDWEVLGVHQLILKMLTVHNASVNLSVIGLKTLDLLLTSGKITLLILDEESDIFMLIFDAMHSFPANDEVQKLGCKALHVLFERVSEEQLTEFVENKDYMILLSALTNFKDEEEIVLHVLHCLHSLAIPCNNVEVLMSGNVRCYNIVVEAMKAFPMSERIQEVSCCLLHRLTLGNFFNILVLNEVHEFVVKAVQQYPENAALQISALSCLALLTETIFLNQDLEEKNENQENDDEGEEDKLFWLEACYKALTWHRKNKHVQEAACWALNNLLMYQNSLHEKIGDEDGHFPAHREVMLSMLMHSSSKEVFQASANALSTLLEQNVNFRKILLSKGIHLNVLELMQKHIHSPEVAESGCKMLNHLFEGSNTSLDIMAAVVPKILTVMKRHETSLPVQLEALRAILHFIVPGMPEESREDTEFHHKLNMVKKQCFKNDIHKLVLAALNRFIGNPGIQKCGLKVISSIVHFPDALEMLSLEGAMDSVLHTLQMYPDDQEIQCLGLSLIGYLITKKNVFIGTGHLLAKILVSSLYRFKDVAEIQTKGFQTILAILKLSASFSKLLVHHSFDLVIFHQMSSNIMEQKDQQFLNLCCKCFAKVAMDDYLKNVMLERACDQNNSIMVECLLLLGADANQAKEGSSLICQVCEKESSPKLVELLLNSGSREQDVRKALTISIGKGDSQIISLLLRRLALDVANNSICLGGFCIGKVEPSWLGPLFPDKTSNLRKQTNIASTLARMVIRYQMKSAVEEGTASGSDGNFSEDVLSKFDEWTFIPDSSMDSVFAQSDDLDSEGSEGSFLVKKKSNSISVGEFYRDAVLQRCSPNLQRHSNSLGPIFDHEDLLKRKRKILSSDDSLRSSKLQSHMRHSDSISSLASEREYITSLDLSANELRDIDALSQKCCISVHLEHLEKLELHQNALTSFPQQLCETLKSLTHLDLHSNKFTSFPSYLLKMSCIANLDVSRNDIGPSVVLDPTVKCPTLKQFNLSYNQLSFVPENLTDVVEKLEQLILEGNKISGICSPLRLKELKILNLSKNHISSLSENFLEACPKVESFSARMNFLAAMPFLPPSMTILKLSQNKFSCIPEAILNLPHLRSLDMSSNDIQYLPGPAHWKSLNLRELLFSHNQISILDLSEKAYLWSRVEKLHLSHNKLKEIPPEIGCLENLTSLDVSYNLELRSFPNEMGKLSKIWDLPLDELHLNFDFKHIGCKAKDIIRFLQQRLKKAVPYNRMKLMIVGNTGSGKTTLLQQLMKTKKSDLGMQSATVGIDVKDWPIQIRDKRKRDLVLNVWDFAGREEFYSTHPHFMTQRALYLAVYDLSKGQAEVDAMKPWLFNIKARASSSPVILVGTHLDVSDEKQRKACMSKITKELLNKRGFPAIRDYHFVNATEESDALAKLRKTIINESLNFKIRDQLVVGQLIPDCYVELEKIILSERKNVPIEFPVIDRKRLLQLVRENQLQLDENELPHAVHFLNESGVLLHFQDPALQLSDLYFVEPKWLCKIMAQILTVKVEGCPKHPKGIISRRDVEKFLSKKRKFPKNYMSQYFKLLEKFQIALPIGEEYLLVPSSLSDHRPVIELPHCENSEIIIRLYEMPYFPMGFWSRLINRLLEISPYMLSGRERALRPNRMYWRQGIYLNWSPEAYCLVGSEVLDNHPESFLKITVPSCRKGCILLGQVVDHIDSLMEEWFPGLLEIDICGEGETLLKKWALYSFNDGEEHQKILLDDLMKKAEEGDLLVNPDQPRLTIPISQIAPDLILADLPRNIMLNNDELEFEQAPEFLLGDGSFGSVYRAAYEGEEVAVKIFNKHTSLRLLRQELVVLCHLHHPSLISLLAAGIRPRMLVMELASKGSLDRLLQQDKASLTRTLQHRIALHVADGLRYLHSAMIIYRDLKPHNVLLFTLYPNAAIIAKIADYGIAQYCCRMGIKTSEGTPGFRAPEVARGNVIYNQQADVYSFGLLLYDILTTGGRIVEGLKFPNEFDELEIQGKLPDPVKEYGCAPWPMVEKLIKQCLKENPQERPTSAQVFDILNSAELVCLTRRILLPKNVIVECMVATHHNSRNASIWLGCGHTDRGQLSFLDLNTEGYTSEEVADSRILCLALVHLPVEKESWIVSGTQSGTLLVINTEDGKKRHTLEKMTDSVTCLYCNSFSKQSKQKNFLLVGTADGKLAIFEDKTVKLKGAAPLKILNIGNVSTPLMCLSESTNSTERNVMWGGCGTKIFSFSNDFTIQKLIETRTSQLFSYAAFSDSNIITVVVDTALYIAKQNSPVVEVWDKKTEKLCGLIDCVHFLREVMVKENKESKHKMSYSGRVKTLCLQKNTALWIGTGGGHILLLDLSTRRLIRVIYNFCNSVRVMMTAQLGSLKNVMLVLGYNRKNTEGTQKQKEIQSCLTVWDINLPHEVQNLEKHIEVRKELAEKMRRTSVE

[9] = target: NUAK family SNF1-like kinase 2 (Homo sapiens) (UniProt Q9H093); assay: Inhibition of wild-type human partial length SNARK (P22 to A333 residues) expressed in mammalian expression system assessed as residual activity at 1 uM by Kinomescan method relative to control
[10] = target: Macrophage-stimulating protein receptor (Homo sapiens) (UniProt Q04912); assay: Inhibition of wild-type human partial length MST1R (I1057 to L1363 residues) expressed in bacterial expression system assessed as residual activity at 1 uM by Kinomescan method relative to control
[11] = target: Death-associated protein kinase 1 (Homo sapiens) (UniProt P53355); assay: Inhibition of wild-type human partial length DAPK1 (M1 to F296 residues) expressed in bacterial expression system assessed as residual activity at 1 uM by Kinomescan method relative to control
[12] = target: Serine/threonine-protein kinase 38-like (Homo sapiens) (UniProt Q9Y2H1); assay: Inhibition of wild-type human partial length NDR2 (N34 to E447 residues) expressed in bacterial expression system assessed as residual activity at 1 uM by Kinomescan method relative to control
Chain of Serine/threonine-protein kinase 38-like (Homo sapiens) (Q9Y2H1 2-464 limits assumed): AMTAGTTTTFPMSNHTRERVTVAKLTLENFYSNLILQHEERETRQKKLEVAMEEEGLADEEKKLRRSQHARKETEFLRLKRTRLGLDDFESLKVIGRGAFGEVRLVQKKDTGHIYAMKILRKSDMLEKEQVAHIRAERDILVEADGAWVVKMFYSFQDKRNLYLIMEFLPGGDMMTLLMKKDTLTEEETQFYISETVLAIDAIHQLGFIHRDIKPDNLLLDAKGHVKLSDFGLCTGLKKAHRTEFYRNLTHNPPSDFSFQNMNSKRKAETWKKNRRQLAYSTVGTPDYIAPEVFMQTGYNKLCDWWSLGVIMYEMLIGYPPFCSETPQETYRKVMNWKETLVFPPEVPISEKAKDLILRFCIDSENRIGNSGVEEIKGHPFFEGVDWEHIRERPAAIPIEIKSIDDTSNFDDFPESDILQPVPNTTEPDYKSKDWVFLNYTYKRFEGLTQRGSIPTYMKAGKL

[13] = In vivo inhibition of LRRK2 in C57BL6 mouse assessed as reduction in Ser935 phosphorylation in kidney at 45 mg/kg, po after 1 hr by Western blot analysis; format: functional; design: scale not given: the % may be the effect or the level left
[14] = target: Mitogen-activated protein kinase 13 (Homo sapiens) (UniProt O15264); assay: Inhibition of wild-type human full length p38-delta (M1 to L365 residues) expressed in bacterial expression system assessed as residual activity at 1 uM by Kinomescan method relative to control
[15] = target: ALK tyrosine kinase receptor (Homo sapiens) (UniProt Q9UM73); assay: Inhibition of wild-type human partial length ALK (I1088 to E1409 residues) expressed in mammalian expression system assessed as residual activity at 1 uM by Kinomescan method relative to control
[16] = target: Tyrosine-protein kinase receptor UFO (Homo sapiens) (UniProt P30530); assay: Inhibition of wild-type human partial length AXL (R497 to Y821 residues) expressed in bacterial expression system assessed as residual activity at 1 uM by Kinomescan method relative to control
[17] = target: Serine/threonine-protein kinase DCLK2 (Homo sapiens) (UniProt Q8N568); assay: Inhibition of wild-type human partial length DCAMKL2 (K273 to V664 residues) expressed in bacterial expression system assessed as residual activity at 1 uM by Kinomescan method relative to control
[18] = target: Serine/threonine-protein kinase MRCK gamma (Homo sapiens) (UniProt Q6DT37); assay: Inhibition of wild-type human partial length DMPK2 (S46 to S408 residues) expressed in bacterial expression system assessed as residual activity at 1 uM by Kinomescan method relative to control
[19] = target: Serine/threonine-protein kinase 26 (Homo sapiens) (UniProt Q9P289); assay: Inhibition of wild-type human full length MST4 (M1 to P416 residues) expressed in mammalian expression system assessed as residual activity at 1 uM by Kinomescan method relative to control
[20] = target: Aurora kinase B (Homo sapiens) (UniProt Q96GD4); assay: Inhibition of wild-type human partial length AURKB (D25 to A303 residues) expressed in mammalian expression system assessed as residual activity at 1 uM by Kinomescan method relative to control
Chain of Aurora kinase B (Homo sapiens) (Q96GD4 whole entry, the tested form may be a part): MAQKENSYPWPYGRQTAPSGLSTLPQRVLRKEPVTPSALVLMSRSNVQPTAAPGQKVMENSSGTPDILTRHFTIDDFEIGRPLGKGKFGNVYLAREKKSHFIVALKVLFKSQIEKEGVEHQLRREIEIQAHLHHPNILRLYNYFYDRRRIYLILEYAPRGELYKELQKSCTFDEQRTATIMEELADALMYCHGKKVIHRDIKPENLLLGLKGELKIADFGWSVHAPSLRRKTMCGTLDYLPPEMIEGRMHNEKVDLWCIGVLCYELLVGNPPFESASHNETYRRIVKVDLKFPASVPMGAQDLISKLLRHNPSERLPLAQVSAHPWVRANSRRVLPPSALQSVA

[21] = target: Dual specificity protein kinase CLK2 (Homo sapiens) (UniProt P49760); assay: Inhibition of wild-type human partial length CLK2 (D144 to R498 residues) expressed in bacterial expression system assessed as residual activity at 1 uM by Kinomescan method relative to control
[22] = target: Protein-tyrosine kinase 2-beta (Homo sapiens) (UniProt Q14289); assay: Inhibition of wild-type human full length PYK2 (M1 to E967 residues) expressed in bacterial expression system assessed as residual activity at 1 uM by Kinomescan method relative to control
[23] = target: Dual specificity protein kinase CLK4 (Homo sapiens) (UniProt Q9HAZ1); assay: Inhibition of wild-type human partial length CLK4 (R135 to K481 residues) expressed in bacterial expression system assessed as residual activity at 1 uM by Kinomescan method relative to control
[24] = target: Phosphorylase b kinase gamma catalytic chain, skeletal muscle/heart isoform (Homo sapiens) (UniProt Q16816); assay: Inhibition of wild-type human full length PHKG1 (M1 to Y387 residues) expressed in bacterial expression system assessed as residual activity at 1 uM by Kinomescan method relative to control
[25] = target: Calcium/calmodulin-dependent protein kinase type II subunit alpha (Homo sapiens) (UniProt Q9UQM7); assay: Inhibition of wild-type human partial length CAMK2A (M1 to K328 residues) expressed in bacterial expression system assessed as residual activity at 1 uM by Kinomescan method relative to control
[26] = target: CDK2/Cyclin A1 (Homo sapiens) (UniProt P24941+P78396); assay: Inhibition of CDK2/Cyclin A1 (unknown origin) assessed as residual activity at 1 uM by Kinomescan method relative to control; format: protein-complex assay

With `CCOc1nc(Nc2ccc(C(=O)N3CCOCC3)cc2OC)nc2[nH]ccc12` the Activity [1] was 85.8%, the Activity [2] was 46.9% and the Activity [3] was 93.3%. The Activity [4] was 92.8%, the Activity [5] was 98.8% and the Activity [6] was 97.7%. The Activity [7] was 109%, the IC50 [8] was 31.6 nM and the Activity [9] was 98.5%. For the same compound, the Activity [10] was 96.9%, the Activity [11] was 64.9% and the Activity [12] was 96.8%. The Activity [13] was 80%, the Activity [14] was 109% and the Activity [15] was 7.52%. The Activity [16] was 93.9%, the Activity [17] was 93.8% and the Activity [18] was 106%. The Activity [19] was 88.4%, the Activity [20] was 90.7% and the Activity [21] was 28.3%. The Activity [22] was 36.1%, the Activity [23] was 35.5% and the Activity [24] was 34.3%. The Activity [25] was 214% and the Activity [26] was 74%.
